This data set in a line: method code SF-AS, from PMID: 43458.

Structures are written as SMILES.

Usually logP stands for a log measure of how a compound divides between an organic and an aqueous phase. Low values mean a more hydrophilic compound, high ones a more lipophilic compound.

Turning to `CCCCOC(=O)c1cc(O)c(O)c(O)c1`, the logP is 2.41. The figure for `CCOC(=O)c1cc(O)c(O)c(O)c1` is 1.3.

In turn, `CCCOC(=O)c1cc(O)c(O)c(O)c1` registered a lipophilicity (logP) of 1.8. As for `CCCCCCCCOC(=O)c1cc(O)c(O)c(O)c1`, the logP was determined as 3.66. Compound `CC(C)COC(=O)c1cc(O)c(O)c(O)c1` gave a lipophilicity (logP) of 2.46.

Turning to `COC(=O)c1cc(O)c(O)c(O)c1`, the logP is 0.86.

These data come from the SangsterLogP compilation.
